Measured values: US9980973B2, “Bicyclic heterocycle compounds and their uses in therapy” (ASTEX THERAPEUTICS LIMITED, priority 2012, dated 2018)
pEC50, pIC50: −log10 of the molar value. Where a name gives a salt, the structure may show the parent alone. Read-outs that look alike come from different tables or passages of the source.

Assays:
[1] = tested on: EVSA-T (human breast carcinoma); assay: Anti-proliferative activity, Alamar Blue assay, EVSA-T; assay type: cell-based
[2] = molecular target: T1, BIR3 domain of human cIAP-1 (Homo sapiens, UniProt Q13490); assay: cIAP-1 in vitro competitive displacement binding assay (fluorescence polarization); conditions: PI at […]
T1 construct: human cIAP-1 (residues 267-363) fused to a GST-tag; GST-tag (cleaved yes); made in house; host or cells: Escherichia coli

[3] = molecular target: T2, BIR3 domain of human XIAP (Homo sapiens, UniProt P98170); assay: XIAP in vitro competitive displacement binding assay (fluorescence polarization); conditions: for IC50: plain number = IC50, average where more than one data point, read-out: Xiap IC50 or PI μM (IC50)
T2 construct: BIR3 domain of human XIAP (residues 252-350) fused to a His-tag; His-tag (cleaved yes); made in house; host or cells: Escherichia coli

[4] = EVSA-T cells, 72 hours, Alamar Blue, dihydrochloride, read-out: EVSA-T prolif
[5] = EVSA-T cells, 72 hours, Alamar Blue, read-out: EVSA-T prolif
[6] = EVSA-T cells, 72 hours, Alamar Blue, hydrochloride, read-out: EVSA-T prolif

T1 sequence (Q13490 267-363): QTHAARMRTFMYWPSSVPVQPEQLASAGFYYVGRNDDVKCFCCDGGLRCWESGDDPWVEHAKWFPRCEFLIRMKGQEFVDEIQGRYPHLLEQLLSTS
T2 sequence (P98170 252-350): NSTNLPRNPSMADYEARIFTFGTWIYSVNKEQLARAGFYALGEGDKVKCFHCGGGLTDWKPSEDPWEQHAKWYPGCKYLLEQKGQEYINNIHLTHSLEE

Row | Compound | pEC50 [1, 4] | cIAP1 IC50 or PI μM (PI) ([2]; 180 min, dihydrochloride, […]) | pEC50 [1, 5] | pEC50 [1, 6] | cIAP1 IC50 or PI μM (PI) ([2]; 180 min, hydrochloride, […]) | IC50 [3] | other results
1 | COCC1(C)COCCN1C[C@H]1CN[C@H](C)CN1CC(=O)N1CC(C)(C)c2ncc(Cc3ccc(F)cc3)cc21 (single isomer, unassigned) [Example 100, dihydrochloride] | 9.04 | 99%@0.012 |  |  |  |  | pEC50 ([1]; Homo sapiens, EVSA-T, read-out: EC50 in EVSA-T cell line assays): > 6.00; inhibition at 0.04 µM ([3]; 1 h, PI at 0.04 μM, read-out: Xiap IC50 or PI μM (PI)): 56%; pIC50 ([3]; or at least 50% inhibition of the activity at 0.1 μM, read-out: IC50 in the XIAP assay): > 7.00
2 | C[C@@H]1CN(CC(=O)N2CC(C)(C)c3cnc(Cc4ccc(F)cc4)cc32)[C@@H](CN2CCOC[C@]2(C)CO)CN1.Cl.Cl [Example 61, 1-{6-[(4-Fluorophenyl)methyl]-3,3-dimethyl-1H,2H,3H-pyrrolo[3,2-c]pyridin-1-yl}-2-[(2R,5R)-2-{[(3S)-3-(hydroxymethyl)-3-methylmorpholin-4-yl]methyl}-5-methylpiperazin-1-yl]ethan-1-one, dihydrochloride] |  |  | 8.22 |  |  |  | cIAP1 IC50 or PI μM (PI) [2]: 99%@0.012; Xiap IC50 or PI μM (PI) ([3]; PI at 0.04 μM): 57%@0.04
3 | C[C@@H]1CN(CC(=O)N2CC(C)(C)c3ncc(C(O)c4cccc(F)c4F)cc32)[C@@H](CN2[C@H](C)COC[C@H]2C)CN1 (single isomer, unassigned) [Example 112, (R or S)-1-{6-[(2,3-Difluorophenyl)(hydroxy)meth-yl]-3,3-dimethyl-1H,2H,3H-pyrrolo[3,2-b]pyridin-1-yl}-2-[(2R,5R)-2-{[(3R,5R)-3,5-dimethylmorpholin-4-yl]methyl}-5-methylpiperazin-1-yl]ethan-1-one dihdrochloride] |  |  | 7.70 |  |  |  | cIAP1 IC50 or PI μM (PI) ([2]; 180 min, […]): 90%@0.012; Xiap IC50 or PI μM (PI) ([3]; PI at 0.04 μM, 60 min, 0.04 µM): 47%@0.04
4 | C[C@@H]1CN(CC(=O)N2CC(C)(C)c3ncc(Cc4ccc(F)cc4)cc32)[C@@H](CN2CCOCC2C(F)(F)F)CN1 (single isomer, unassigned) [Example 27, 1-{6-[(4-Fluorophenyl)methyl]-3,3-dimethyl-1H,2H,3H-pyrrolo[3,2-b]pyridin-1-yl}-2-[(2R,5R)-5-methyl-2-{[3-([R or S]trifluoromethyl)morpholin-4-yl]methyl}piperazin-1-yl]ethan-1-one hydrochloride] |  |  |  | 7.82 | 90%@0.012 | 0.13 µM | 
5 | C[C@@H]1CN(CC(=O)N2CC(C)(C)c3ncc(Cc4ccc(F)cc4)cc32)[C@@H](CN2CCCCC2C(F)(F)F)CN1 (single isomer, unassigned) [Example 26, 1-{6-[(4-Fluorophenyl)methyl]-3,3-dimethyl-1H,2H,3H-pyrrolo[3,2-b]pyridin-1-yl}-2-[(2R,5R)-5-methyl-2-{[2-([R or S]trifluoromethyl)piperidin-1-yl]methyl}piperazin-1-yl]ethan-1-one hydrochloride] |  |  |  | 6.92 | 94%@0.012 | 0.21 µM | 
6 | C[C@@H]1CN(CC(=O)N2CC(C)(C)c3ncc(C(O)c4ccccc4F)cc32)[C@@H](CN2[C@H](C)COC[C@H]2C)CN1 (single isomer, unassigned) [Example 108, 2-[(2R,5R)-2-{[(3R,5R)-3,5-Dimethylmorpholin-4-yl]methyl}-5-methylpiperazin-1-yl]-1-{6-[(R or S)-(2-fluorophenyl)-(hydroxy)methyl]-3,3-dimethyl-1H,2H,3H-pyrrolo[3,2-b]pyridin-1-yl}ethan-1-one dihydrochloride] | 8.57 | 97%@0.012 |  |  |  |  | Xiap IC50 or PI μM (PI) ([3]; PI at 0.04 μM, 60 min, dihydrochloride, 0.04 µM): 66%@0.04
